Source: the Kinase Knowledgebase extract (Sharma et al. 2016)

target: PIK3CG (human) (UniProt P48736); test: Assessment of PIK3CG Kinase Activity
Sequence (P48736 whole entry, looked up): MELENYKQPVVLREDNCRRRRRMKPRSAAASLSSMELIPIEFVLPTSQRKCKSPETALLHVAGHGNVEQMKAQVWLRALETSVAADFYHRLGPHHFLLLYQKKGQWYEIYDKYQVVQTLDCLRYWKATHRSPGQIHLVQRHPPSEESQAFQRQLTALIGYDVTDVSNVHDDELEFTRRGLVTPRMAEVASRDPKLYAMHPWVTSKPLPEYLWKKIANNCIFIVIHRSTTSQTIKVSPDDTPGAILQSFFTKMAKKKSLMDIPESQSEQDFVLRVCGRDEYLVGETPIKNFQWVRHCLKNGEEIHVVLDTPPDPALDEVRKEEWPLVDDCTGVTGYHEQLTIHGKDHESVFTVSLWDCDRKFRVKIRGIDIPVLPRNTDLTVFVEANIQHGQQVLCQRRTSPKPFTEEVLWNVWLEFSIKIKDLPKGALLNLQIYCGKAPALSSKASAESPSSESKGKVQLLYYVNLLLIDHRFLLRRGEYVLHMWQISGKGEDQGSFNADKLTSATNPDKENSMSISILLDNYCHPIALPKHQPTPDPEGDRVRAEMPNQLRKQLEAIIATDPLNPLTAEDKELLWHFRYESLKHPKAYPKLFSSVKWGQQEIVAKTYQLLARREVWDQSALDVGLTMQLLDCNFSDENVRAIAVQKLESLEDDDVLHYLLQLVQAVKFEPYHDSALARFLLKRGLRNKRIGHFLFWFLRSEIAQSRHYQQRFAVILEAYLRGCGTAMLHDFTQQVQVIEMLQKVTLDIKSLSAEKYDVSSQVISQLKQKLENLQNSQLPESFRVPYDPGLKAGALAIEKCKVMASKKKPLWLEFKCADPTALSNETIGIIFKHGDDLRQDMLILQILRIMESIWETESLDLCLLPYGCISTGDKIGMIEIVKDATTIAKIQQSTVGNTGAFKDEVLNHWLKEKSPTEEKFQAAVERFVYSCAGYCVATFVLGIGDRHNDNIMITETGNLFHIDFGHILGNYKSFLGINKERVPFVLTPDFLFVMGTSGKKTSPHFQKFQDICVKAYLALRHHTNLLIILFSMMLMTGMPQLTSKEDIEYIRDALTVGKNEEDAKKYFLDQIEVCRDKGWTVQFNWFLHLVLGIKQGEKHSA

IC50 [nM] | Structure (SMILES)
24.5 | COc1cc2c(Oc3ccccc3)c(C(=O)Nc3nn[nH]n3)sc2cc1F
16 | COc1cc2c(OC3CCN(C(=O)OC(C)(C)C)CC3)c(C(=O)Nc3nn[nH]n3)sc2cc1F
11000 | COc1ccc2sc(C(=O)Nc3nnn[nH]3)c(Sc3cccc(C(F)(F)F)c3)c2c1F
3.8 | COc1cc2c(O[C@@H]3CCC[C@H](C)C3)c(C(=O)Nc3nn[nH]n3)sc2cc1F
45.5 | COc1cc2c(Sc3ccc(Cl)cc3)c(C(=O)Nc3nnn[nH]3)sc2cc1F
27 | COc1ccc2c(SC3CCCCC3)c(C(=O)Nc3nnn[nH]3)sc2c1F
14 | COc1cc2c(OCC3(C)CC3)c(C(=O)Nc3nn[nH]n3)sc2cc1F
35 | COc1cc2c(O[C@@H]3CCC[C@@H](C)C3)c(C(=O)Nc3nn[nH]n3)sc2cc1F
12 | COc1cc2c(SC3CCCCC3)c(C(=O)Nc3nnn[nH]3)sc2cc1F
505 | COc1ccc2sc(C(=O)Nc3nnn[nH]3)c(Sc3ccc(C4CCCCC4)cc3)c2c1F
20000 | COc1ccc2sc(C(=O)Nc3nnn[nH]3)c(SC(c3ccccc3)C(C)N(C)C(C)=O)c2c1F (configuration not stated)
19400 | COc1ccc2sc(C(=O)Nc3nnn[nH]3)c(Sc3ccc(CC(=O)O)cc3)c2c1F
